Drawing on US20240150293A1, “SPIROCYCLOHEXANE DERIVATIVES, PHARMACEUTICAL COMPOSITIONS CONTAINING THEM AND THEIR USES AS ANTI-APOPTOTIC INHIBITORS” (LES LABORATOIRES SERVIER, priority 2021, published 2024), this text covers Ki and IC50 for 20 molecules.

SMILES strings stand for the structures. pIC50, pKi: −log10 of the molar value.

Test [1] has as its target Cy5-labelled Mcl1 (amino acids 171-321) C286S protein (UniProtKB Q07820) (Homo sapiens (Human), UniProt Q07820, C286S). In words: Inhibition of Mcl-1 by the fluorescence quenching assay (Example A, Method B). Type of test: binding. An outline of the steps:
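Eleven-point compound series incubated 2 h at room temperature with 1 nM Cy5-tagged protein and quencher-labelled PUMA peptide at 10, 20 or 400 nM in HEPES/NaCl/Tween 20, pH 7.4, 5% DMSO. IC50 for 50% fluorescence increase by 4-parameter fit, then Ki derived (complete cKi or estimated eKi).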

The subject of test [2] is H929 multiple myeloma tumor line. In words: In vitro cytotoxicity, MTT assay (Example B, Method A). Type of test: cell-based. Conditions: Homo sapiens, NCI-H929, 48 h, H929 cells, 48 hours exposure, read-out: C50. As for the experimental part:
The cytotoxicity studies were carried out on the H929 multiple myeloma tumor line.
The cells are distributed onto microplates and exposed to the test compounds for 48 hours. The cell viability is then quantified by a colorimetric assay, the Microculture Tetrazolium Assay (Carmichael et al, Cancer Res. 1987, 47, 939-942).
The results are expressed in C50 which means concentration corresponding to […] of effect/inhibition.

As usually defined, the pKi is −log10 of the Ki, conventionally taken in molar units.

Sequence of Cy5-labelled Mcl1 (amino acids 171-321) C286S protein (Q07820 171-321 C286S): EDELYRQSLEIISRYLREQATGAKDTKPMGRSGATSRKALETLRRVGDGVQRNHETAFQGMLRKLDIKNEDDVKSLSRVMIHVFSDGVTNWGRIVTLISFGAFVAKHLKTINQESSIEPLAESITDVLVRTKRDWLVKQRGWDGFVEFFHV

As for `C[C@@H](COc1ccnc2c1CCC2)C[C@@H]1Cc2ccccc2[C@]12CC[C@@](Nc1cccc(Cl)c1)(C(=O)O)CC2` [Example 598, (1r,2′R,4R)-4-(3-chloroanilino)-2′-{(2R)-3-[(6,7-dihydro-5H-cyclopenta[b]pyridin-4-yl)oxy]-2-methylpropyl}-2′,3′-dihydrospiro[cyclohexane-1,1′-indene]-4-carboxylic acid], the pKi in test [1] was 8.37. Besides, the pIC50 in test [2] was 6.23.

With `C[C@@H](COc1ccnc2c1CCC2)C[C@H]1Cc2ccccc2[C@]12CC[C@@](Nc1cccc(Cl)c1)(C(=O)O)CC2` [Example 599, (1r,2′S,4S)-4-(3-chloroanilino)-2′-{(2R)-3-[(6,7-dihydro-5H-cyclopenta[b]pyridin-4-yl)oxy]-2-methylpropyl}-2′,3′-dihydrospiro[cyclohexane-1,1′-indene]-4-carboxylic acid], the negative-log Ki (pKi) in test [1] was 8.98. The pIC50 in test [2] is 6.63.

Take `C[C@@H](COc1ccnc2c1CCC2F)C[C@H]1Cc2ccccc2[C@]12CC[C@@](Nc1cccc(Cl)c1)(C(=O)O)CC2` (stereo partly drawn) [Example 603, (1r,2′S,4S)-4-(3-chloroanilino)-2′-{(2R)-3-[(7-fluoro-6,7-dihydro-5H-cyclopenta[b]pyridin-4-yl)oxy]-2-methylpropyl}-2′,3′-dihydrospiro[cyclohexane-1,1′-indene]-4-carboxylic acid]: the pKi in test [1] is 8.10. Also, in test [2], the pIC50 is 5.95.

On to `CC1CC(O)c2nccc(OC[C@H](C)C[C@H]3Cc4ccccc4[C@]34CC[C@@](Nc3cccc(Cl)c3)(C(=O)O)CC4)c21` (stereo partly drawn) [Example 610, (1r,2′S,4S)-4-(3-chloroanilino)-2′-{(2R)-3-[(7-hydroxy-5-methyl-6,7-dihydro-5H-cyclopenta[b]pyridin-4-yl)oxy]-2-methylpropyl}-2′,3′-dihydrospiro[cyclohexane-1,1′-indene]-4-carboxylic acid], for which the pKi in test [1] is 9.12. The pIC50 in test [2] was 6.37.

As to `C[C@@H](COc1ccnc2c1CC(C)(C)C2)C[C@H]1Cc2ccccc2[C@]12CC[C@@](Nc1cccc(Cl)c1)(C(=O)O)CC2` [Example 611, (1r,2′S,4S)-4-(3-chloroanilino)-2′-{(2R)-3-[(6,6-dimethyl-6,7-dihydro-5H-cyclopenta[b]pyridin-4-yl)oxy]-2-methylpropyl}-2′,3′-dihydrospiro[cyclohexane-1,1′-indene]-4-carboxylic acid], the pKi in test [1] was 7.91. Also, the pIC50 in test [2] is 5.78.

Regarding `CC[C@@H]1CCc2nccc(OC[C@H](C)C[C@H]3Cc4ccccc4[C@]34CC[C@@](Nc3cccc(Cl)c3)(C(=O)O)CC4)c21` [Example 612, (1r,2′S,4S)-4-(3-chloroanilino)-2′-[(2R)-3-{[(5R)-5-ethyl-6,7-dihydro-5H-cyclopenta[b]pyridin-4-yl]oxy}-2-methylpropyl]-2′,3′-dihydrospiro[cyclohexane-1,1′-indene]-4-carboxylic acid], in test [1], the pKi was 9.25. In test [2], the pIC50 is 6.50.

Turning to `CC[C@H]1CCc2nccc(OC[C@H](C)C[C@H]3Cc4ccccc4[C@]34CC[C@@](Nc3cccc(Cl)c3)(C(=O)O)CC4)c21` [Example 613, (1r,2′S,4S)-4-(3-chloroanilino)-2′-[(2R)-3-{[(5S)-5-ethyl-6,7-dihydro-5H-cyclopenta[b]pyridin-4-yl]oxy}-2-methylpropyl]-2′,3′-dihydrospiro[cyclohexane-1,1′-indene]-4-carboxylic acid], the pKi in test [1] was 7.72. Besides, the pIC50 in test [2] was 5.63.

`C[C@@H](COc1ccnc2ccn(C)c12)C[C@H]1Cc2ccccc2[C@]12CC[C@@](Nc1cccc(Cl)c1)(C(=O)O)CC2` [Example 619, (1r,2′S,4S)-4-(3-chloroanilino)-2′-{(2R)-2-methyl-3-[(1-methyl-1H-pyrrolo[3,2-b]pyridin-7-yl)oxy]propyl}-2′,3′-dihydrospiro[cyclohexane-1,1′-indene]-4-carboxylic acid]: the pKi in test [1] was 8.03. Also, the pIC50 in test [2] was 5.87.

Turning to `C[C@@H](CNc1ccnc2ccsc12)C[C@H]1Cc2ccccc2[C@]12CC[C@@](Nc1cccc(Cl)c1)(C(=O)O)CC2` [Example 627, (1r,2′S,4S)-4-(3-chloroanilino)-2′-{(2R)-2-methyl-3-[(thieno[3,2-b]pyridin-7-yl)amino]propyl}-2′,3′-dihydrospiro[cyclohexane-1,1′-indene]-4-carboxylic acid], the pKi in test [1] is 8.13. In addition, in test [2], the pIC50 is 5.88.

Consider `C[C@@H](COc1c[nH]c2ccccc12)C[C@H]1Cc2ccccc2[C@]12CC[C@@](Nc1cccc(Cl)c1)(C(=O)O)CC2` [Example 628, (1r,2′S,4S)-4-(3-chloroanilino)-2′-{(2R)-3-[(1H-indol-3-yl)oxy]-2-methylpropyl}-2′,3′-dihydrospiro[cyclohexane-1,1′-indene]-4-carboxylic acid], for which, in test [1], the pKi was 7.16. Moreover, the pIC50 in test [2] was 5.62.

Turning to `C[C@@H](COc1ccnc2c(Cl)cn(C)c12)C[C@H]1Cc2ccccc2[C@]12CC[C@@](Nc1cccc(Cl)c1)(C(=O)O)CC2` [Example 631, (1r,2′S,4S)-4-(3-chloroanilino)-2′-{(2R)-3-[(3-chloro-1-methyl-1H-pyrrolo[3,2-b]pyridin-7-yl)oxy]-2-methylpropyl}-2′,3′-dihydrospiro[cyclohexane-1,1′-indene]-4-carboxylic acid], the negative-log Ki (pKi) in test [1] was 7.90. For the same molecule, the pIC50 in test [2] was 5.50.

Regarding `C[C@@H](COc1ncnc2c1CCCC2)CC1=Cc2ccccc2[C@]12CC[C@@](Nc1cccc(Cl)c1)(C(=O)O)CC2` [Example 636, (1r,4R)-4-(3-chloroanilino)-2′-{(2R)-2-methyl-3-[(5,6,7,8-tetrahydroquinazolin-4-yl)oxy]propyl}spiro[cyclohexane-1,1′-indene]-4-carboxylic acid], in test [1], the pKi was 7.79. Moreover, in test [2], the pIC50 is 5.51.

Regarding `C[C@@H](COc1ncnc2c1CCCC2)C[C@H]1Cc2ccccc2[C@]12CC[C@@](Nc1cccc(Cl)c1)(C(=O)O)CC2` [Example 637, (1r,2′S,4S)-4-(3-chloroanilino)-2′-{(2R)-2-methyl-3-[(5,6,7,8-tetrahydroquinazolin-4-yl)oxy]propyl}-2′,3′-dihydrospiro[cyclohexane-1,1′-indene]-4-carboxylic acid], in test [1], the negative logarithm of the Ki (pKi) is 8.29. Besides, the pIC50 in test [2] was 5.81.

As for `C[C@@H](COc1ncnc2c1[C@H](C)CCC2)C[C@H]1Cc2ccccc2[C@]12CC[C@@](Nc1cccc(Cl)c1)(C(=O)O)CC2` [Example 638, (1r,2′S,4S)-4-(3-chloroanilino)-2′-[(2R)-2-methyl-3-{[(5R)-5-methyl-5,6,7,8-tetrahydroquinazolin-4-yl]oxy}propyl]-2′,3′-dihydrospiro[cyclohexane-1,1′-indene]-4-carboxylic acid], the pKi in test [1] is 8.42. Besides, the pIC50 in test [2] is 6.43.

As for `C[C@@H](COc1ccnc2c1CCCC2)C[C@H]1Cc2ccccc2[C@]12CC[C@@](Nc1cccc(Cl)c1)(C(=O)O)CC2` [Example 645, (1r,4R)-4-(3-chloroanilino)-2′-{(2R)-2-methyl-3-[(5,6,7,8-tetrahydroquinolin-4-yl)oxy]propyl}-2′,3′-dihydrospiro[cyclohexane-1,1′-indene]-4-carboxylic acid], the pKi in test [1] is 8.39. In addition, in test [2], the pIC50 was 6.21.

Regarding `C[C@@H](COc1ccnc2c1[C@H](C)CCC2)CC1=Cc2ccccc2[C@]12CC[C@@](Nc1cccc(Cl)c1)(C(=O)O)CC2` [Example 646, (1r,4R)-4-(3-chloroanilino)-2′-[(2R)-2-methyl-3-{[(5R)-5-methyl-5,6,7,8-tetrahydroquinolin-4-yl]oxy}propyl]spiro[cyclohexane-1,1′-indene]-4-carboxylic acid], the pKi in test [1] was 9.23. In test [2], the pIC50 was 6.83.

For the molecule `C[C@@H](COc1ccnc2c1[C@@H](C)CCC2)CC1=Cc2ccccc2[C@]12CC[C@@](Nc1cccc(Cl)c1)(C(=O)O)CC2` [Example 647, (1r,4R)-4-(3-chloroanilino)-2′-[(2R)-2-methyl-3-{[(5S)-5-methyl-5,6,7,8-tetrahydroquinolin-4-yl]oxy}propyl]spiro[cyclohexane-1,1′-indene]-4-carboxylic acid], the pKi in test [1] was 8.03. The pIC50 in test [2] is 6.06.

Consider `C[C@@H](COc1ccnc2c1C1CCC2CC1)C[C@H]1Cc2ccccc2[C@]12CC[C@@](Nc1cccc(Cl)c1)(C(=O)O)CC2` [Example 648, (1r,2′S,4S)-4-(3-chloroanilino)-2′-{(2R)-2-methyl-3-[(5,6,7,8-tetrahydro-5,8-ethanoquinolin-4-yl)oxy]propyl}-2′,3′-dihydrospiro[cyclohexane-1,1′-indene]-4-carboxylic acid], for which, in test [1], the pKi was 7.74. Moreover, in test [2], the pIC50 was 6.10.

Consider `CC1CCc2c(OC[C@H](C)C[C@H]3Cc4ccccc4[C@]34CC[C@@](Nc3cccc(Cl)c3)(C(=O)O)CC4)ccnc2C1` (stereo partly drawn) [Example 650, (1r,2′S,4S)-4-(3-chloroanilino)-2′-{(2R)-2-methyl-3-[(7-methyl-5,6,7,8-tetrahydroquinolin-4-yl)oxy]propyl}-2′,3′-dihydrospiro[cyclohexane-1,1′-indene]-4-carboxylic acid], for which the negative logarithm of the Ki (pKi) in test [1] is 8.26. Besides, the pIC50 in test [2] is 6.04.

`C[C@@H](COc1ccnc2c1[C@@H](C)CCC2)C[C@H]1Cc2ccccc2[C@]12CC[C@@](Nc1cccc(Cl)c1)(C(=O)O)CC2` [Example 654, (1r,2′S,4S)-4-(3-chloroanilino)-2′-[(2R)-2-methyl-3-{[(5S)-5-methyl-5,6,7,8-tetrahydroquinolin-4-yl]oxy}propyl]-2′,3′-dihydrospiro[cyclohexane-1,1′-indene]-4-carboxylic acid]: in test [1], the negative logarithm of the Ki (pKi) is 8.28. In test [2], the pIC50 is 6.12.
